Experimental data: the supplement of paper PMC10307832

Legend:
Assay in all cases: relative viability (nuclei count vs DMSO), 5 days (fraction); higher = more cells survive
Palbociclib + OSI-027 = compound: CC(=O)c1c(C)c2cnc(Nc3ccc(N4CCNCC4)cn3)nc2n(C2CCCC2)c1=O [Palbociclib] + COc1cccc2cc(-c3nc([C@H]4CC[C@H](C(=O)O)CC4)n4ncnc(N)c34)[nH]c12 [OSI-027] (partner 0.5 µM)
Summary of the method: (§1)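 Cells from lung cancer lines were seeded into 1536-well plates and, one day later, dosed by pin tool. Treatments were either a single drug or a fixed dose of an anchor drug with five library-drug doses (not always all listed) in √10 steps. After 5 days, nuclei were stained in a one-step fixation (final 0.05% Triton X-100, 1% formaldehyde, 1 ug/ml Hoechst) and counted on 4× images, and relative viability is the treated-to-vehicle nuclei ratio, as the median of duplicate plates.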

Palbociclib + Luminespib = compound: CC(=O)c1c(C)c2cnc(Nc3ccc(N4CCNCC4)cn3)nc2n(C2CCCC2)c1=O [Palbociclib] + CCNC(=O)c1noc(-c2cc(C(C)C)c(O)cc2O)c1-c1ccc(CN2CCOCC2)cc1 [Luminespib] (partner 0.01 µM)
Summary of the method: as §1

Palbociclib + Decitabine = compound: CC(=O)c1c(C)c2cnc(Nc3ccc(N4CCNCC4)cn3)nc2n(C2CCCC2)c1=O [Palbociclib] + Nc1ncn([C@H]2C[C@H](O)[C@@H](CO)O2)c(=O)n1 [Decitabine] (partner 2 µM)
Summary of the method: as §1

Palbociclib + Lapatinib = compound: CC(=O)c1c(C)c2cnc(Nc3ccc(N4CCNCC4)cn3)nc2n(C2CCCC2)c1=O [Palbociclib] + CS(=O)(=O)CCNCc1ccc(-c2ccc3ncnc(Nc4ccc(OCc5cccc(F)c5)c(Cl)c4)c3c2)o1 [Lapatinib] (partner 2 µM)
Summary of the method: as §1

Cell Line | relative viability (Palbociclib + OSI-027; first compound 0.01 µM) | relative viability (Palbociclib + OSI-027; first compound 0.03162 µM) | relative viability (Palbociclib + OSI-027; first compound 0.1 µM) | relative viability (Palbociclib + OSI-027; first compound 0.3162 µM) | relative viability (Palbociclib + OSI-027; first compound 1 µM) | relative viability (Palbociclib + Luminespib; first compound 0.01 µM) | relative viability (Palbociclib + Luminespib; first compound 0.03162 µM) | relative viability (Palbociclib + Luminespib; first compound 0.1 µM) | relative viability (Palbociclib + Luminespib; first compound 0.3162 µM) | relative viability (Palbociclib + Luminespib; first compound 1 µM) | relative viability (Palbociclib + Decitabine; first compound 0.01 µM) | relative viability (Palbociclib + Decitabine; first compound 0.03162 µM) | relative viability (Palbociclib + Decitabine; first compound 0.1 µM) | relative viability (Palbociclib + Decitabine; first compound 0.3162 µM) | relative viability (Palbociclib + Decitabine; first compound 1 µM) | relative viability (Palbociclib + Lapatinib; first compound 0.01 µM) | relative viability (Palbociclib + Lapatinib; first compound 0.03162 µM) | relative viability (Palbociclib + Lapatinib; first compound 0.1 µM) | relative viability (Palbociclib + Lapatinib; first compound 0.3162 µM) | relative viability (Palbociclib + Lapatinib; first compound 1 µM)
NCI-H2009 | 0.64 | 0.481 | 0.331 | 0.297 | 0.194 | 1.04 | 0.897 | 0.817 | 0.701 | 0.519 | 0.375 | 0.347 | 0.358 | 0.365 | 0.274 | 0.859 | 0.391 | 0.697 | 0.63 | 0.369
A-427 | 0.467 | 0.271 | 0.282 | 0.33 | 0.308 | 0.991 | 0.809 | 0.691 | 0.74 | 0.501 | 0.6 | 0.581 | 0.489 | 0.539 | 0.519 | 0.965 | 0.735 | 1.03 | 0.895 | 0.648
NCI-H647 | 0.788 | 0.496 | 0.652 | 0.636 | 0.362 | 0.0934 | 0.13 | 0.137 | 0.209 | 0.253 | 0.408 | 0.315 | 0.356 | 0.392 | 0.337 | 1.26 | 0.956 | 0.778 | 0.923 | 0.525
NCI-H838 | 0.318 | 0.348 | 0.308 | 0.317 | 0.185 | 0.274 | 0.346 | 0.267 | 0.257 | 0.265 | 0.455 | 0.461 | 0.48 | 0.434 | 0.353 | 0.919 | 0.927 | 0.767 | 0.776 | 0.276
NCI-H2087 | 0.433 |  | 0.361 | 0.278 | 0.25 | 0.175 |  | 0.137 | 0.235 | 0.203 | 0.234 | 0.272 | 0.2 | 0.228 | 0.171 | 1.08 | 0.814 | 0.688 | 0.649 | 0.442
NCI-H1755 | 0.677 | 0.496 | 0.555 | 0.633 | 0.391 | 0.266 | 0.297 | 0.451 | 0.479 | 0.284 | 0.742 | 0.744 | 0.614 | 0.7 | 0.635 | 1.07 | 0.604 | 0.929 | 0.878 | 0.617
